Source: article PMC9823097, “Dysregulation of PRMT5 in chronic lymphocytic leukemia promotes progression with high risk of Richter’s transformation” (Nature Communications, 2023)

Experiments:
[1] = target: 38 other methyltransferases (e.g DNMTs, MLL1-4 complexes, EZH1 and EZH2 complexes, NRMTs, NSD, SUVs, SMYs, SETs, PRDM9), and other members of the PRMT family; assay: Methyltransferase selectivity panel, 3H-SAM radioligand with filtration binding; type: biochemical
Description: (§1) For in vitro assays, the compound was stored in a 10 mM solution in DMSO. For in vivo assays, PRT382 was dissolved in a 0.5% methylcellulose, 0.1% tween solution, and administered as oral gavage. For Pharmacokinetic studies, PRT382 was formulated in 0.5% carboxymethylcellulose sodium salt + 0.5%Tween80 as a 1 mg/mL suspension for 10 mg/kg and was administered in a 10 mL/kg dose volume by oral gavage to CD-1 mice. Blood was collected at various time points after dosing into EDTA-K2 tubes, placed on ice, and stored at −80 °C prior to analysis by LC-MS/MS. For biochemical potency and selectivity, PRT382 was solubilized in 100% DMSO and diluted serially threefold. For assessment of selectivity, enzyme activity against a panel of 37 methyltransferases was evaluated using 3H-SAM as a radioligand probe with filtration binding. PRT382 was tested in duplicate at a final concentration of 10 µM. The percent of enzyme activity relative to DMSO control condition was determined for each enzyme.

[2] = tested on: Granta-519 lymphoma cell line; assay: Reducing sDMA assay (western blot of cellular sDMA) in Granta-519; type: cell-based; conditions: for sDMA signal normalized to β-Actin and DMSO control: DMSO = 100
Description: For western blot analysis of Cellular sDMA in Granta-519, one day before the experiment, Granta-519 cells were passaged to a density of 0.5 × 10^6 cells/ml. The next day, Granta-519 cells were spun down at 1500 rpm for 4 min, resuspended in fresh medium at 0.5E6 cells/ml and 3 mL of culture (1.5E6 cells) were seeded into a six-well plate. Eight-point, threefold serial dilutions of compound working stocks were added to cells (3 µl, 1:1000 dilution, DMSO concentration was 0.1%; final top concentration at 1 µM) and incubated for 3 days. Cells incubated with DMSO was used as vehicle control. Cells were harvested 3 days later, resuspended in 15 µL PBS, lysed in 4% SDS, and homogenized by passing through homogenizer column (Omega Biotek, Catalog #: HCR003). Total protein concentrations were determined by BCA assay (ThermoFisher Scientific, Catalog #: 23225). Lysates were mixed with 5× Laemmli buffer and boiled for 5 min. Forty micrograms of total protein was separated on SDS-PAGE gels (Bio-Rad, catalog #: 4568083, 4568043), transferred to PVDF membrane, and blocked with 5% dry milk (Bio-Rad, Catalog #: 1706404) in TBS with 0.1% v/v Tween20 (TBST) for 1 h at room temperature (RT), and incubated with primary antibodies (sDMA: Cell signaling, Catalog #: 13222, 1:3,000; β-actin: sigma, Catalog #: A2228, 1:5000) in 5% dry milk in TBST at 4 °C overnight. The next day, membranes were washed with TBST, 5 × 5 min, and incubated with HRP conjugated seconded antibody (GE Healthcare; Catalog #: NA9341 ML, NA931-1ML; 1:5000) for 2 hours at RT, followed by 5 × 5 min washes with TBST, and incubation with ECL substrates (Bio-Rad, Catalog #: 1705061, 1705062). The chemiluminescent signal was captured with Fluochem HD2 imager (Proteinsimple). SmD3me2s bands were quantified by ImageJ. Signals were normalized to β-Actin and DMSO control. IC50 values were calculated using Graphpad Prism (v9.2.0) ([Inhibitor] vs. normalized response – Variable slope).

U-2932 = assay: Anti-proliferative activity, MTS assay, U-2932; type: cell-based; conditions: Homo sapiens, U2932, DLBCL, read-out: PRT382 IC50 (anti-proliferative)
Description: (§2) Cell proliferation was assessed via MTS (3-[4,5-dimethylthiazol-2-yl]-5-[3-carboxymethoxyphenyl]-2-[4-sulfophenyl]-2H-tetrazolium) assay (Sigma), using the tetrazolium dye […]. Cell apoptosis was evaluated by Annexin V-FITC or PE and propidium iodide (PI) staining using FC500 cytometer (Beckman-Coulter, Indianapolis, IN) following the manufacturer’s procedure (BD Pharmingen, Billerica, MA)[55]. For cell cycle analysis, cells were fixed with cold ethanol overnight and then stained before analysis with 30 μg/mL propidium iodide (Invitrogen) and 200 μg/mL RNase (Sigma-Aldrich) in 0.1 % v/v Triton X-100 (Sigma-Aldrich). Cell cycle data analysis was performed using ModFit LT software (Verity Software House, Topsham, ME).

RL = assay: Anti-proliferative activity, MTS assay, RL; type: cell-based; conditions: Homo sapiens, DLBCL, read-out: PRT382 IC50 (anti-proliferative)
Description: as §2

KARPAS-422 = assay: Anti-proliferative activity, MTS assay, KARPAS-422; type: cell-based; conditions: Homo sapiens, DLBCL, read-out: PRT382 IC50 (anti-proliferative)
Description: as §2

Jurkat = assay: Anti-proliferative activity, MTS assay, Jurkat; type: cell-based; conditions: Homo sapiens, T-cell line, read-out: PRT382 IC50 (anti-proliferative)
Description: as §2

[3] = Tolerability after 5 daily oral doses in WT CD-1 mice; type: in vivo; conditions: 10, 30 and 100 mg/kg
Description: as §1

SMILES: CON=c1nc[nH]c2c1ccn2[C@@H]1O[C@H]([C@H](O)c2ccc(Cl)c(Cl)c2)[C@@H](O)[C@H]1O.Cl [PRT382, (2 R,3 S,4 R,5 R)-2-[(R)-(3,4-dichlorophenyl)-hydroxy-methyl]-5-[(4Z)-4-methoxyimino-1H-pyrrolo[2,3-d]pyrimidin-7-yl]tetrahydrofuran-3,4-diol hydrochloride]
- IC50 ([1]; 38 other methyltransferases and other PRMT family members, read-out: IC50 against other methyltransferases): > 1000 nM
- inhibition of other tested methyltransferases ([1]; PRT382 at 10 uM): ≤ 20%
- sDMA signal normalized to β-Actin and DMSO control ([2]; Conc. 0.000457247 µM): 88.6989
- sDMA signal normalized to β-Actin and DMSO control ([2]; Conc. 0.00137174 µM): 97.8569
- sDMA signal normalized to β-Actin and DMSO control ([2]; Conc. 0.00411523 µM): 93.6002
- sDMA signal normalized to β-Actin and DMSO control ([2]; Conc. 0.0123457 µM): 75.2291
- sDMA signal normalized to β-Actin and DMSO control ([2]; Conc. 0.037037 µM): 39.1378
- sDMA signal normalized to β-Actin and DMSO control ([2]; Conc. 0.111111 µM): 15.0036
- sDMA signal normalized to β-Actin and DMSO control ([2]; Conc. 0.333333 µM): 6.086
- sDMA signal normalized to β-Actin and DMSO control ([2]; Conc. 1 µM): 6.863
- IC50 ([2]; Homo sapiens, 72 h, Granta-519, 3 days): 27 nM
- IC50 (U-2932): 12 nM
- IC50 (RL): 16 nM
- IC50 (KARPAS-422): 23 nM
- IC50 (Jurkat): > 1000 nM
- tolerability [3]: well-tolerated
- observable toxicity ([3]; after 5 daily oral doses): without observable toxicity
